Patent US6495588B2, “Scytonemin and methods of using thereof” (The Regents of the University of California, priority 2000, dated 2002)

Assays:
[1] = target: T1, GST-CHK1 (Homo sapiens, UniProt O14757); experiment: GST-Chk1 activity assay; assay type: biochemical; conditions: 10 μM cold ATP, GST-cdc25C substrate
T1 construct: made in house
T1 sequence (O14757 1-476): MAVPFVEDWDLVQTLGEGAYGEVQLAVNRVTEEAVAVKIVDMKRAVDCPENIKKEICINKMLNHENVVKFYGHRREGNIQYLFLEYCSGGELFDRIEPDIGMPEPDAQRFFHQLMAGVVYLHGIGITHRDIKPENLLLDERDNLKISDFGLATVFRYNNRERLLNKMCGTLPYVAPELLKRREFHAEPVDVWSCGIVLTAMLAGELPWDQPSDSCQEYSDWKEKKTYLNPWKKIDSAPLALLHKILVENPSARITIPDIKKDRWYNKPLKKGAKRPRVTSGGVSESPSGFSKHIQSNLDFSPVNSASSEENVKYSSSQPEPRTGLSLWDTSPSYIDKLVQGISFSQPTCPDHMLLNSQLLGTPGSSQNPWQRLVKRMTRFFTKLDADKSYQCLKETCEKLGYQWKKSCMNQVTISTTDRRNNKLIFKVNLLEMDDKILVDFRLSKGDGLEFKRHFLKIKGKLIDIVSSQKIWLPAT
Procedure: To determine the effect of SCY on GST-Chk1 activity, the following assay was conducted. GST-Chk1 were expressed and purified using a method previously described in Jackson et al. (2000) Can. Res. 60:566-572, which is herein incorporated by reference. GST-Chk1 was purified to […] purity as determined via SDS-PAGE analysis. The remaining 30% was attributed to free GST. Flashplates were coated with 1 μg GST-cdc25C and 100 μM ATP at 4° C. The plates were washed twice with PBS, then 0.5 μCi [^33P]-γATP, 10 μM cold ATP, and 2 μg GST-CHK1, were added to the wells in kinase reaction buffer comprising 20 mM HEPES (pH 7.4), 50 mM KCl, 10 mM MgCl2, 1 mM EGTA, and 0.5 mM DTT. Activity was measured in the presence of scytonemin (SCY) in 100% DMSO yielding a 4% DMSO final concentration. Reactions were initiated by the addition of the enzyme, incubated at 37° C. for 30 minutes, and stopped by washing the plates five times with PBS. The amount of [^33P]-γATP incorporation was measured on a Packard Top-count.

[2] = target: T2, PKA (Bos taurus, UniProt P00517); experiment: PKA activity assay; assay type: biochemical, bovine
T2 construct: 0.5 μg PKA (from bovine heart supplied by Sigma, St. Louis, Mo.); purchased Sigma, St. Louis, Mo; host or cells: bovine heart tissue
Procedure: RhPKCβ2 was expressed in a baculovirus expression system. Kinase reactions were conducted in 50 μl comprising 0.5 μg rhPKC diluted in 2 mM Tris, and 100 μM EGTA and reaction buffer comprising substrate (0.9 mM EGTA, 1.1 mM CaCl2, 0.01 mg/ml glycogen synthase peptide (H-[…]OH) (Bachem, King of Prussia, Pa.), 40 μg/ml L-α-Phosphatidyl-L-serine, 1 μg/ml 1,3-Diolen, 10 mM MgCl2, pH 7.5). To assess PKA activity, kinase reactions were conducted in 50 μl comprising 0.5 μg PKA (from bovine heart supplied by Sigma, St. Louis, Mo.) diluted in 10 mM MOPS, pH 6.5 and reaction buffer comprising substrate (50 mM MOPS, pH 6.5, 10 mM MgCl2, 0.1 mg/ml Histone-IIA (Sigma, St. Louis, Mo.), 1 μM cAMP). An ATP solution (0.01 μM ATP and 0.5 μCi of [γ^33-P] ATP) was then added to the wells in both assay systems. Inhibitors were added at the indicated concentrations with a final DMSO concentration of 10%. Reactions were allowed to proceed for 20 minutes at 37° C. and were stopped with 25 mM EDTA. The reactions were spotted onto filter paper, washed four times in a beaker comprising 75 mM phosphoric acid and rinsed with acetone. Filters were dried and put in scintillation vials with fluid and counted.

[3] = test system: CAP-induced mouse ear edema; experiment: Capsaicin (CAP)-induced mouse ear edema assay; assay type: in vivo
Procedure: Various dilutions of test compounds were topically applied in acetone to the inside and outside surfaces of the left ears of mice in a solution comprising 0.1 μg RTX or 250 μg CAP per ear. A control, acetone, was applied to all right ears. After a 30 minute incubation, the mice were sacrificed, the ears removed, and bores taken and weighed.
For systemic studies, the test compounds were administered by intraperitoneal injection in a vehicle comprising 20% propylene glycol, 80% saline and 3 drops TWEEN-20 30 minutes or 1 hour prior to topical application of RTX or CAP. Control animals were injected with vehicle only. 0.1 μg RTX or 250 μg CAP was applied to the left ears and acetone was applied to the right ears. After 30 minutes of incubation, the mice were scarified, ears removed and bores taken and weighed.
Edema was measured by subtracting the weight of the right ear (control) from the weight of the left ear. The results were recorded as % decrease (inhibition) or % increase (potentiation) in edema relative to the control group edema.

[4] = test system: PMA-induced mouse ear skin hyperplasia; experiment: Tissue hyperplasia assay (PMA-induced mouse ear skin hyperplasia); assay type: in vivo
Procedure: To determine the in vivo efficacy of syctonemin, PMA-induced mouse ear skin hyperplasia model was used. As one cause of tissue hyperplasia is chronic inflammation, mouse ear skin was exposed to multiple PMA applications to simulate chronic inflammation. Specifically, 0.125, 0.25, 0.5, or 1.0 mg of scytonemin in 20 μl of 20% DMSO and 80% acetone was applied to the inner pinnae of the left ears of male, Swiss Webster mice (Taconic Farms, Germantown, N.Y.) at 0, 5, 24, 29, 48, and 53 hours. The inner pinnae of the right ears received only 10 μl of vehicle and 10 μl of acetone at 0, 5, 24, 29, 48, and 53 hours. At 0.5 and 48.5 hours, 4 μg/ear PMA (Sigma, St. Louis, Mo.) in 10 μl acetone was applied to the inner pinnae the left ears and 10 μl acetone was applied to each right ear. One hour after the last scytonemin application (54 hours) each mouse was injected with 0.6 ml of a solution containing IUdR (2 μCi-I^125/mouse) and 26 μg FUdR. This IUdR/FUdR solution was made up in RPMI 1640 media. At 72 hours, the mice were euthanized via CO2 inhalation, the ears were excised and soaked individually in a 70% EtOH solution overnight.
At 96 hours, IUdR incorporation was then measured using a Beckman Gamma counter, Model 5500B. […] IUdR incorporated was calculated by the following equation: % IUdR incorporation=(Count of Ear−Background)/(Total Count−Background). The percent of control of IUdR incorporation was calculated by the following equation: % Control=(% IUdR Uptake in Sample Ear)/(% IUdR Uptake PMA−Treated Control Ear)×100.
Alternatively, the cyrosections of the mouse ears were stained and histologically analyzed. […]
At 72 hours, the mice were euthanized and the ears were immediately embedded in a suitable hypoxy resin such as OCT media and snap frozen using melting isopentane using conventional methods. […] The sections were fixed and stained with hematoxlin and then analyzed under a microscope with a 10× magnification.

[5] = test system: LPS-stimulated monocytes; experiment: Proinflammatory mediator production in LPS-stimulated monocytes; assay type: cell-based

scytonemin
IC50 [1]: ~1400 nM
IC50 [2]: > 10000 nM
concentration at which PKA activity is significantly affected or inhibited ([2]; 0.01 μM ATP): ≥ 10 µM
inhibition of edema ([3]; systemic 10 mg/kg, 30 minutes before topical CAP): no inhibition of edema
inhibition of edema ([3]; topical 500 μg/ear against 250 μg/ear CAP): ~24%
thickness of the epidermal layer ([4]; PMA-treated mouse ears): reduced the thickness of the epidermal layer
tissue hyperplasia (histology, hematoxlin) ([4]; scytonemin 1 mg/ear, dexamethasone 0.15 mg/ear, PMA 4 μg/ear): to about normal
ED50 skin hyperplasia (IUdR incorporation) ([4]; topical): about 0.270±0.11 mg/ear
IL-1β production [5]: reduces
PGE2 production [5]: reduces
TNFα production [5]: reduces
